{"source": "patent US20140303216A1", "about": "“COMPOSITIONS AND METHODS FOR INDUCING DISRUPTION OF BLOOD VASCULATURE AND FOR REDUCING ANGIOGENESIS” (BOARD OF REGENTS, THE UNIVERSITY OF TEXAS SYSTEM, priority 2011, published 2014)", "key": {"[1]": {"settings": "mice; cited from earlier work"}, "tubulin proteins": {"test_system": "tubulin proteins", "experiment": "Quantitative mass spectrometry of tubulins in HUVECs", "assay_type": "cell-based, human", "settings": "250 μM TBZ, 24 hours", "procedure": "Following alkylation, samples were diluted in digestion buffer (50 mM Tris-HCl, pH 8.0, 2 mM CaCl2) to a final 2,2,2-trifluoroethanol concentration of 5% (v/v) and digested using proteomics grade trypsin (Sigma) at 1:50 (enzyme/protein) concentration and incubated at 37° C. for 4-5 h. Digestion was halted with the addition of 1% formic acid (v/v), and sample volume was reduced to 200 μl by SpeedVac centrifugation prior to loading on […] (Thermo). Samples were eluted (60% acetonitrile, 0.1% formic acid), reduced to 10 μl by SpeedVac centrifugation, and resuspended in sample buffer (5% acetonitrile, 0.1% formic acid). Tryptic peptides were then filtered through Microcon 10-kDa centrifugal filters (Millipore), and collected as flow-through. Peptides were chromatographically separated on a Zorbax reverse-phase C-18 column (Agilent) via a 230 min 5-38% acetonitrile gradient, then analyzed by on-line nanoelectrospray-ionization tandem mass spectrometry on an LTQ-Orbitrap (Thermo Scientific). […] Differential expression of proteins across TBZ-treated and control samples was quantified from the MS2 spectral count data using the APEX method of relative quantification^32."}, "HUVECs": {"test_system": "HUVECs", "experiment": "HUVEC cytoskeleton imaging (actin stress fibers, β-tubulin immunohistochemistry)", "description": "Alexa Fluor 488 phalloidin (Invitrogen) and/or 4′,6-Diamidino-2-phenylindole (Sigma) were added as needed."}, "HUVEC cells": {"test_system": "HUVEC cells", "experiment": "HUVEC apoptosis and proliferation (Caspase-3, Phospho-histone H3 immunostaining)", "assay_type": "cell-based, human", "settings": "cultured on 0.1% gelatin", "text": "FIG. 18. TBZ treatment (A) increases apoptosis and (B) decreases proliferation of HUVEC cells cultured on 0.1% gelatin, but only by approximately 2-fold. Both changes are significant under a t test (p=0.015, p=0.01, respectively). Error bars represent mean±1 s.d. across 14-16 fields of view of 200× magnification confocal microscopy cell images across 2-3 independent experiments. Scale bar, 100 μm.\nControl cells received 1% DMSO."}, "[2]": {"test_system": "developing Xenopus embryos", "experiment": "Ectopic angiogenesis stimulated by VEGF-soaked beads implanted into Xenopus embryos", "assay_type": "in vivo, Xenopus laevis", "procedure": "FIG. 12. TBZ inhibits ectopic angiogenesis (note the doubled PCV in the left panel) stimulated by Affy-gel blue beads (75-150 μm diameter, indicated by white arrowheads) pre-soaked with 0.7 mg/ml vascular endothelial growth factor (VEGF) and microsurgically implanted into developing Xenopus embryos, assaying for the vasculature by ISH versus erg or apinr (showing data for erg). 6 of 8 control animals developed ectopic PCV or VV, as opposed to 0 of 9 TBZ-dosed animals (p value=0.0023).\nFemale adult Xenopus were ovulated by injections of human chorionic gonadotropin, and eggs were fertilized in vitro and dejellied in 3% cysteine (pH 7.9) and subsequently reared in ⅓×Marc's modified Ringer's (MMR) solution. For microinjections, embryos were placed in a solution of 2% Ficoll in ⅓×MMR solution, injected using forceps and an Oxford universal manipulator, reared in 2% Ficoll in ⅓×MMR to stage 9, then washed and reared in ⅓×MMR solution alone. For bilateral rab11b knock-down experiments, the posterior cardinal vein and intersomitic veins were targeted by injecting Morpholino antisense oligonucleotides (MOs) into the two ventral cells equatorially at the four-cell stage. For unilateral knockdown, only one ventral cell was injected. MOs were injected at 40 ng per blastomere. […]"}, "VEGF": {"test_system": "VEGF", "experiment": "VEGF levels in HT1080 cells (Western blotting, ELISA)", "assay_type": "cell-based, human", "settings": "250 μM TBZ, 24 hours", "procedure": "Cells were lysed in cell lysis buffer (Cell Signaling Technology) containing 1 mM PMSF, and analyzed by SDS-PAGE and western blotting using anti-VEGF (Santa Cruz, A-20) or anti-GAPDH (Cell Signaling Technology) antibodies. The secreted VEGF level in culture media was determined by enzyme-linked immunosorbent assay (ELISA; R&D) according to the manufacturer's instructions."}, "Xenopus embryos": {"test_system": "Xenopus embryos", "experiment": "Xenopus embryo morphology and developmental defects", "assay_type": "in vivo", "text": "Female adult Xenopus were ovulated by injections of human chorionic gonadotropin, and eggs were fertilized in vitro and dejellied in 3% cysteine (pH 7.9) and subsequently reared in 1⁄3×Marc's modified Ringer's (MMR) solution. For microinjections, embryos were placed in a solution of 2% Ficoll in 1⁄3×MMR solution, injected using forceps and an Oxford universal manipulator, reared in 2% Ficoll in 1⁄3×MMR to stage 9, then washed and reared in 1⁄3×MMR solution alone. For bilateral rab11b knock-down experiments, the posterior cardinal vein and intersomitic veins were targeted by injecting Morpholino antisense oligonucleotides (MOs) into the two ventral cells equatorially at the four-cell stage. For unilateral knockdown, only one ventral cell was injected. MOs were injected at 40 ng per blastomere. For the experiments to see the drug effects, embryos were placed in a solution of each chemical dissolved in 1% DMSO diluted in 1⁄3×MMR during indicated stages. For bead micro-surgery implantation, Affi-Gel Blue Gel beads (Bio-Rad) were soaked with 0.7 mg/ml recombinant mouse VEGF 164 aa (R&D systems) or BSA as a control. Whole-mount in situ hybridization for […] performed as described^29. Immunostaining for Xenopus was performed as previously described (Lee et al., 2008). Embryos at stage 35-36 were fixed in 1×MEMFA. 12/101 (1:500; DSHB), and primary antibodies were detected with Alexa Fluor-488 or 555 goat anti-mouse Immunoglobulin (IgG)."}}, "data": [{"smiles": "c1ccc2[nH]c(-c3cscn3)nc2c1", "note": "[TBZ, 4-(1H-1,3-benzodiazol-2-yl)-1,3-thiazole]", "values": [{"measurement": "effect on fertility", "setting": "[1]", "value": "does not appear to affect fertility"}, {"measurement": "abundance of several tubulin proteins", "setting": "tubulin proteins", "value": "significant reduction"}, {"measurement": "actin stress fibers", "setting": "HUVECs; 250 μM TBZ versus 1% DMSO control", "value": "disorganization of actin stress fibers"}, {"measurement": "gross organization of the MT cytoskeleton", "setting": "HUVECs; HUVEC cells in culture, 250 μM TBZ", "value": "only a very slight effect"}, {"measurement": "decrease of proliferation of HUVEC cells", "setting": "HUVEC cells; p=0.01", "value": "approximately 2 fold"}, {"measurement": "increase of apoptosis of HUVEC cells", "setting": "HUVEC cells; p=0.015", "value": "approximately 2 fold"}, {"measurement": "animals that developed ectopic PCV or VV", "setting": "[2]; beads soaked with 0.7 mg/ml VEGF, control 6 of 8, p value=0.0023", "value": "0 of 9"}, {"measurement": "ectopic angiogenesis induced by ectopic VEGF", "setting": "[2]; frog embryos", "value": "blocked"}, {"measurement": "level of VEGF expressed by HT1080 cells (Western blotting)", "setting": "VEGF", "value": "did not alter"}, {"measurement": "level of VEGF secreted by HT1080 cells (ELISA)", "setting": "VEGF", "value": "did not alter"}, {"measurement": "somitic muscle, defined with the 12/101 antibody", "setting": "Xenopus embryos; 250 μM TBZ, 1% DMSO, treated at stage 31, imaged at stages 35-36, compared to 1% DMSO control", "value": "normal"}, {"measurement": "overall morphology and patterning of treated Xenopus embryos", "setting": "Xenopus embryos; at the stages when the vasculature was severely disrupted", "value": "grossly normal"}]}]}
